# Measurements: PubChem BioAssay (NCI)
#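 Each compound was tested at five concentrations against cells in 96-well plates for 48 hours. TGI: total growth inhibition.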
# System: OVCAR-5 ovarian
# Assay: inhibition of tumour cell growth, NCI panel, 48 h
row,SMILES,TGI [µM]
1,O=C1c2ccccc2S[C@@H](O)[C@@H]2CCCN12,> 100
2,CC1=C2C3=C(C)C(=O)C(C)(C)CC[C@@]3(C)[C@]2(C)CCC(C)(C)C1=O,> 100
3,Cc1cc(=O)[nH]c(NNC(C#N)c2ccc(O)cc2)n1 (configuration not stated),> 100
4,O=C1NNC(=O)C2C3c4ccccc4C(c4ccccc43)C12 (configuration not stated),> 100
5,O=C(CSc1nnc(Cc2ccccc2)o1)Nc1cccc([N+](=O)[O-])c1,> 100
6,O=C(CC(=O)n1nc(-c2ccccc2)c(N=Nc2ccc(Cl)cc2)c1-c1ccccc1)Nc1cccc(Cl)c1,> 100
7,COc1cccc(C2c3cc4c(cc3OC(N3CCCC3)C2C)OCO4)c1 (configuration not stated),82.1
8,CN(C)/N=C(\CCN1CCCC1)CC(c1ccccc1)c1c(O)c2ccccc2oc1=O (configuration not stated),> 100
9,CCOC(=O)C(Cl)(NC(=O)c1ccc(F)cc1)C(F)(F)F (configuration not stated),> 100
10,CC1CN=C(Nc2ccc(S(N)(=O)=O)cc2)S1 (configuration not stated),> 100
11,CC(=O)NCc1nc(C#N)c(N)o1,> 100
12,COc1cc2c(c(OC)c1OC)-c1ccc(SC)c(=O)cc1C(CC(=O)Oc1ccc([N+](=O)[O-])cc1)C2 (configuration not stated),> 100
13,CSc1nc(Cl)c2c(n1)Sc1nc3cc4c(cc3n1C2O)OCO4 (configuration not stated),> 100
14,CC(=O)NC(CCCN)C(=O)NCc1ccccc1 (configuration not stated),> 100
15,Cc1[nH]c(=O)[nH]c(=S)c1C(=O)NC(C)(CO)CO,> 100
16,Cc1nnc([C@@]2(C)CC[C@H]3[C@@H](CC=C4C[C@@H](O)CC[C@@]43C)[C@@H]2CC#N)o1,> 100
17,COc1ccc(-c2c(C(C)=O)c(-c3ccccc3)n(C3OC(COC(C)=O)C(OC(C)=O)C(OC(C)=O)C3OC(C)=O)c(=S)c2C#N)cc1 (configuration not stated),> 100
18,O=C1SCC(O)=C1/C=N/Nc1nc2ccccc2o1,> 100
19,CCCCCCCCCCCCCCCCCc1cccc(OCOCCOC)c1CO,> 100
20,CCOC(=O)Cn1sc2ncc([N+](=O)[O-])cc2c1=O,38
21,O=C1CCC(c2ccccc2)C(O)(C(=O)O)C1 (configuration not stated),> 100
22,N#CCCN(CCC#N)c1ccc(C(=O)NN)cc1,> 100
23,CN1CCC(OC(=O)Oc2ccccc2)(c2ccccc2)CC1,84.2
24,CCN(CC)Cc1cc(Nc2ccnc3ccc4c(nnn4C)c23)ccc1O,33.9
25,CC1=CC(=O)NP(=O)(Oc2ccc(C)cc2)N1 (configuration not stated),> 100
26,COC(=O)c1ccc2c(c1)CC1(C2)Cc2cc3c(cc2C1=O)CCC3 (configuration not stated),> 100
27,S=C1Cc2c([nH]c3ccccc23)-c2ccccc2N1,> 100
28,N#[O+].O=S(=O)([O-])[O-].[NH2-].[NH2-].[NH2-].[NH2-].[NH2-].[Ru+5],> 100

# System: MALME-3M melanoma
# Assay: inhibition of tumour cell growth, NCI panel, 48 h
row,SMILES,TGI [µM]
1,O=C1c2ccccc2S[C@@H](O)[C@@H]2CCCN12,> 100
2,CC1=C2C3=C(C)C(=O)C(C)(C)CC[C@@]3(C)[C@]2(C)CCC(C)(C)C1=O,> 100
3,Cc1cc(=O)[nH]c(NNC(C#N)c2ccc(O)cc2)n1 (configuration not stated),> 100
4,O=C1NNC(=O)C2C3c4ccccc4C(c4ccccc43)C12 (configuration not stated),> 100
5,O=C(CSc1nnc(Cc2ccccc2)o1)Nc1cccc([N+](=O)[O-])c1,> 100
6,O=C(CC(=O)n1nc(-c2ccccc2)c(N=Nc2ccc(Cl)cc2)c1-c1ccccc1)Nc1cccc(Cl)c1,> 100
7,CN(C)/N=C(\CCN1CCCC1)CC(c1ccccc1)c1c(O)c2ccccc2oc1=O (configuration not stated),> 100
8,O=P(c1ccccc1)(c1ccccc1)C(NCc1ccccc1)c1ccc(F)cc1 (configuration not stated),34.6
9,CCOC(=O)C(Cl)(NC(=O)c1ccc(F)cc1)C(F)(F)F (configuration not stated),> 100
10,CC1CN=C(Nc2ccc(S(N)(=O)=O)cc2)S1 (configuration not stated),> 100
11,CC(=O)NCc1nc(C#N)c(N)o1,> 100
12,COc1cc2c(c(OC)c1OC)-c1ccc(SC)c(=O)cc1C(CC(=O)Oc1ccc([N+](=O)[O-])cc1)C2 (configuration not stated),> 65.2
13,CSc1nc(Cl)c2c(n1)Sc1nc3cc4c(cc3n1C2O)OCO4 (configuration not stated),63.9
14,CC(=O)NC(CCCN)C(=O)NCc1ccccc1 (configuration not stated),> 100
15,Cc1[nH]c(=O)[nH]c(=S)c1C(=O)NC(C)(CO)CO,> 100
16,Cc1nnc([C@@]2(C)CC[C@H]3[C@@H](CC=C4C[C@@H](O)CC[C@@]43C)[C@@H]2CC#N)o1,> 100
17,COc1ccc(-c2c(C(C)=O)c(-c3ccccc3)n(C3OC(COC(C)=O)C(OC(C)=O)C(OC(C)=O)C3OC(C)=O)c(=S)c2C#N)cc1 (configuration not stated),> 100
18,O=C1SCC(O)=C1/C=N/Nc1nc2ccccc2o1,> 100
19,CCCCCCCCCCCCCCCCCc1cccc(OCOCCOC)c1CO,> 100
20,CCOC(=O)Cn1sc2ncc([N+](=O)[O-])cc2c1=O,33.9
21,O=C1CCC(c2ccccc2)C(O)(C(=O)O)C1 (configuration not stated),> 100
22,N#CCCN(CCC#N)c1ccc(C(=O)NN)cc1,> 100
23,CN1CCC(OC(=O)Oc2ccccc2)(c2ccccc2)CC1,32.5
24,CCN(CC)Cc1cc(Nc2ccnc3ccc4c(nnn4C)c23)ccc1O,42.1
25,CC1=CC(=O)NP(=O)(Oc2ccc(C)cc2)N1 (configuration not stated),> 100
26,CC(=O)OC1CC2OC(Cc3ccccc32)O1 (configuration not stated),63.7
27,CCOC(=O)CC(NC(=O)c1nc[nH]c1[N+](=O)[O-])C(=O)OCC (configuration not stated),> 100
28,COC(=O)c1ccc2c(c1)CC1(C2)Cc2cc3c(cc2C1=O)CCC3 (configuration not stated),82.8
29,S=C1Cc2c([nH]c3ccccc23)-c2ccccc2N1,> 100
